The source of these data is ChEMBL document CHEMBL1201862, “PubChem BioAssay data set” (2004).

Test systems include U-251; SNB-75; OVCAR-4; RPMI-8226; IGROV-1; TK-10; 786-0; MCF7; HT-29; NCI-H226; HCT-116; CAKI-1; NCI-H23; SK-MEL-28; MOLT-4; OVCAR-8; BT-549; EKVX; A498; NCI-H522.
Holding throughout (assay): NCI-60 cell line screen, 48 h

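Results reflect a 48-hour exposure of cells in 96-well plates to compound at five concentrations. GI50 = concentration required for 50% inhibition of growth.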 Active and inactive are the calls of the source. Rule as the data show it: active = GI50 up to about 1.1 µM and inactive = higher. A value given as a limit tells only on which side of the number the result lay.

As for `Cc1cc(NS(=O)(=O)c2ccc(NC(NC(=O)C(C(F)(F)F)C(F)(F)F)(C(F)(F)F)C(F)(F)F)cc2)no1`, the GI50 with U-251, with SNB-75, in the test with OVCAR-4, with RPMI-8226, with IGROV-1 and in the test with TK-10 was > 100 µM (inactive) throughout. In addition, the GI50 in the test with 786-0, in the test with MCF7, in the test on HT-29, with NCI-H226, in the test on HCT-116 and in the test on CAKI-1 was > 100 µM (inactive) throughout. For the same molecule, the GI50 in the test on NCI-H23, in the test with SK-MEL-28, in the test with MOLT-4, in the test with OVCAR-8, with BT-549 and in the test with EKVX was > 100 µM (inactive) in each case.

`COc1ccc(C2C3=C(CCCC3=O)N(c3ccccc3)C3=C2C(=O)CCC3)cc1`: the GI50 in the test with U-251 is 75.7 µM (inactive); with SNB-75, 28.2 µM (inactive); with OVCAR-4, 61.5 µM (inactive); in the test with RPMI-8226, > 100 µM (inactive); with IGROV-1 it was > 100 µM (inactive); in the test with TK-10, > 100 µM (inactive). The GI50 was 45.6 µM (inactive) with 786-0; 43.8 µM (inactive) in the test with MCF7; > 100 µM (inactive) in the test on HT-29; 21.6 µM (inactive) in the test with NCI-H226; > 100 µM (inactive) in the test on CAKI-1; > 100 µM (inactive) with NCI-H23. Besides, the GI50 with SK-MEL-28 was > 100 µM (inactive); with MOLT-4 it was > 100 µM (inactive); with A498, > 100 µM (inactive); with BT-549, 29.4 µM (inactive); with EKVX it was > 100 µM (inactive).

As to `CC1(C)OCC2OC3([C@H]4OC(C)(C)O[C@@H]4CO)OC(C)(C)OC3C2O1` (stereo partly drawn), the GI50 with U-251, with SNB-75, in the test on OVCAR-4, with RPMI-8226, in the test on IGROV-1 and in the test with 786-0 was > 100 µM (inactive) in each case. For the same molecule, the GI50 in the test on MCF7, in the test with HT-29, in the test with NCI-H226, in the test on HCT-116, in the test with CAKI-1 and in the test on NCI-H23 was > 100 µM (inactive) each time. The GI50 in the test with SK-MEL-28, in the test on MOLT-4, in the test on OVCAR-8, in the test with A498, with BT-549 and with EKVX was > 100 µM (inactive) throughout.

For `N#CC(NNC(=O)c1c(Cl)c(Cl)c(Cl)c(Cl)c1-c1nc2cc(C(=O)c3ccccc3)ccc2[nH]1)c1ccccc1` (stereo not drawn), the GI50 with U-251 is 15.8 µM (inactive); in the test on SNB-75, 3.95 µM (inactive); with OVCAR-4, 7.13 µM (inactive); in the test with RPMI-8226 it was 6.85 µM (inactive); with IGROV-1, 12.5 µM (inactive); in the test with TK-10, 21.8 µM (inactive). Further, the GI50 with 786-0 was 12.2 µM (inactive); in the test with MCF7, 2.9 µM (inactive); in the test with HT-29 it was 8.53 µM (inactive); in the test with NCI-H226, 9.2 µM (inactive); with HCT-116 it was 10.6 µM (inactive); in the test with CAKI-1 it was 21.4 µM (inactive). Besides, the GI50 in the test with NCI-H23 was 7.45 µM (inactive); with SK-MEL-28 it was 17.8 µM (inactive); in the test on NCI-H522 it was 3.39 µM (inactive); with MOLT-4 it was 3.22 µM (inactive); in the test with OVCAR-8, 23.7 µM (inactive); with BT-549, 9.2 µM (inactive). In the test with EKVX, the GI50 is 17.9 µM (inactive).

Consider `COC(=O)c1nc(-c2nc(CCNC(=O)OC(C)(C)C)sc2Cl)sc1Cl`, for which the GI50 is > 100 µM (inactive) with U-251; 23.1 µM (inactive) in the test with SNB-75; 41.1 µM (inactive) in the test on RPMI-8226; > 100 µM (inactive) in the test on IGROV-1; > 100 µM (inactive) in the test on TK-10; > 100 µM (inactive) in the test on 786-0. Also, the GI50 with MCF7 is 52 µM (inactive); with HT-29, > 100 µM (inactive); with NCI-H226, 33.3 µM (inactive); with HCT-116, 60.7 µM (inactive); in the test on NCI-H23, 44.7 µM (inactive); with SK-MEL-28, 70.1 µM (inactive). For the same molecule, the GI50 with MOLT-4 is 23.8 µM (inactive); in the test on OVCAR-8, 35.5 µM (inactive); in the test on A498 it was 94.6 µM (inactive); in the test on BT-549, 34.5 µM (inactive); with EKVX, > 100 µM (inactive).

On to `O=C1CC(O)c2c1csc2Br` (stereo not drawn), for which the GI50 in the test on U-251 is 19.8 µM (inactive); with SNB-75 it was 26.4 µM (inactive); in the test with OVCAR-4, 31.6 µM (inactive); in the test on RPMI-8226, 14.3 µM (inactive); in the test on IGROV-1, 13.5 µM (inactive); in the test with TK-10, 8.97 µM (inactive). Moreover, the GI50 is 17.9 µM (inactive) in the test with 786-0; 19.8 µM (inactive) in the test with MCF7; 33.3 µM (inactive) with HT-29; 18.5 µM (inactive) in the test on HCT-116; 37.8 µM (inactive) in the test with CAKI-1; 21.9 µM (inactive) in the test with NCI-H23. The GI50 with SK-MEL-28 was 17.8 µM (inactive); in the test with NCI-H522 it was 15.5 µM (inactive); in the test on MOLT-4 it was 20.3 µM (inactive); with OVCAR-8 it was 23.3 µM (inactive); in the test on BT-549 it was 23.2 µM (inactive); in the test on EKVX it was 48.2 µM (inactive).

As to `CC(=O)OCC1OC(n2c(N)c(C#N)c(-c3ccc(C)cc3)c(C#N)c2=S)C(OC(C)=O)C(OC(C)=O)C1OC(C)=O` (stereo not drawn), the GI50 in the test on U-251 was 17 µM (inactive); with SNB-75, 16 µM (inactive); in the test with OVCAR-4, 41.9 µM (inactive); with RPMI-8226, 29.2 µM (inactive); in the test on IGROV-1 it was 20.3 µM (inactive); in the test with TK-10, 18.5 µM (inactive). Further, the GI50 is 15.7 µM (inactive) with 786-0; 20.1 µM (inactive) with MCF7; 18.7 µM (inactive) with HT-29; 3.53 µM (inactive) in the test with NCI-H226; 46.1 µM (inactive) in the test with HCT-116; 63.7 µM (inactive) with CAKI-1. Moreover, the GI50 in the test with NCI-H23 was 21.1 µM (inactive); in the test with SK-MEL-28, 38.7 µM (inactive); in the test on OVCAR-8, 15.2 µM (inactive); with A498, 39.9 µM (inactive); in the test with BT-549, 37.3 µM (inactive); in the test with EKVX it was 18.3 µM (inactive).

In the case of `Cc1cc(NS(=O)(=O)c2ccc(NC(=O)c3ccc4[nH]c5ccccc5c(=O)c4c3)cc2)no1`, the GI50 in the test on U-251 is 47.4 µM (inactive); in the test on SNB-75 it was > 100 µM (inactive); with OVCAR-4, > 100 µM (inactive); in the test with RPMI-8226, > 100 µM (inactive); with IGROV-1 it was > 100 µM (inactive); in the test on TK-10, > 100 µM (inactive). In addition, the GI50 in the test with 786-0, with MCF7, in the test with HT-29, in the test with NCI-H226, with HCT-116 and in the test with CAKI-1 was > 100 µM (inactive) in each case. Further, the GI50 in the test on NCI-H23 was > 100 µM (inactive); in the test on SK-MEL-28, > 100 µM (inactive); with NCI-H522 it was > 100 µM (inactive); with MOLT-4 it was 49.8 µM (inactive); in the test on OVCAR-8, > 100 µM (inactive); in the test with BT-549, > 100 µM (inactive). The GI50 with EKVX is > 100 µM (inactive).

Turning to `Cc1ccc(/N=N/C(=N/NC(=O)c2cc(Cl)ccc2C(=O)c2ccccc2)c2ccc(N(CCC#N)CCC#N)cc2C)cc1`, the GI50 with U-251 is 8.02 µM (inactive); with SNB-75 it was 18.2 µM (inactive); with OVCAR-4, 10.4 µM (inactive); with RPMI-8226 it was 10.2 µM (inactive); with IGROV-1 it was 7.59 µM (inactive); in the test on TK-10, 19.7 µM (inactive). Moreover, the GI50 is 10.4 µM (inactive) in the test on 786-0; 3.52 µM (inactive) in the test with MCF7; 16.9 µM (inactive) in the test with HT-29; 10.4 µM (inactive) in the test on NCI-H226; 9.64 µM (inactive) with HCT-116; 20.4 µM (inactive) in the test on CAKI-1. In addition, the GI50 is 21.8 µM (inactive) in the test with NCI-H23; 14.1 µM (inactive) in the test with SK-MEL-28; 4.81 µM (inactive) with NCI-H522; 4.99 µM (inactive) with MOLT-4; 11 µM (inactive) in the test with OVCAR-8; 15.4 µM (inactive) with BT-549. Also, the GI50 in the test with EKVX was 17.3 µM (inactive).

Regarding `CCN(CC)CCNC(=O)c1cc2cc(NC(=O)c3cc4cc(NC(=O)c5cc6cc([N+](=O)[O-])ccc6[nH]5)ccc4[nH]3)ccc2[nH]1`, the GI50 in the test on U-251 was > 100 µM (inactive); in the test on SNB-75 it was > 100 µM (inactive); with OVCAR-4, > 100 µM (inactive); in the test on RPMI-8226 it was < 0.01 µM (active); with IGROV-1, > 100 µM (inactive); with TK-10, > 100 µM (inactive). The GI50 in the test with 786-0, in the test with HT-29, with NCI-H226, in the test on CAKI-1, in the test with NCI-H23 and in the test with SK-MEL-28 was > 100 µM (inactive) in each case. Besides, the GI50 in the test on NCI-H522 is > 100 µM (inactive); in the test with MOLT-4, < 0.01 µM (active); in the test on OVCAR-8 it was > 100 µM (inactive); with A498 it was > 100 µM (inactive); with BT-549 it was > 100 µM (inactive); in the test with EKVX it was > 100 µM (inactive).

As to `CCOc1ccc(N/C(=C(/C(Cl)=C(/Cl)N(CC)CC)[N+](=O)[O-])n2nnc3ccccc32)cc1`, the GI50 in the test with U-251 is 14 µM (inactive); with SNB-75, 20.3 µM (inactive); in the test with OVCAR-4, 19.7 µM (inactive); with RPMI-8226, 26.9 µM (inactive); with 786-0, 17.2 µM (inactive); in the test with MCF7 it was 29.9 µM (inactive). Besides, the GI50 is 26.4 µM (inactive) in the test with HT-29; 37.8 µM (inactive) in the test on NCI-H226; 16.7 µM (inactive) with HCT-116; 13.4 µM (inactive) in the test with CAKI-1; 17.2 µM (inactive) in the test with NCI-H23; 20 µM (inactive) in the test on SK-MEL-28. Further, the GI50 is > 100 µM (inactive) in the test with MOLT-4; 16.2 µM (inactive) with OVCAR-8; 15 µM (inactive) with A498; 19.8 µM (inactive) with BT-549; 23.3 µM (inactive) in the test with EKVX.
